The target of this experiment is CXCR7 (Homo sapiens (Human), UniProt P25106). Briefly: PathHunter CHO-K1 CXCR7 b-arrestin assay (agonistic activity). The following applies: PathHunter CHO-K1 CXCR7 b-arrestin cell line. The format is cell-based. An outline of the steps:
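CHO-K1 cells co-expressing ProLink-tagged CXCR7 and EA-fused β-arrestin 2 (enzyme fragment complementation); compounds added in HBSS/20 mM HEPES/0.2% BSA after 3–4 h in OPTIMEM, 90 min at 37 °C. Chemiluminescent β-gal signal read after 1 h detection at room temperature; EC50 reported as geometric mean of several measurements.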
Chain of CXCR7 (P25106 whole entry, the tested form may be a part): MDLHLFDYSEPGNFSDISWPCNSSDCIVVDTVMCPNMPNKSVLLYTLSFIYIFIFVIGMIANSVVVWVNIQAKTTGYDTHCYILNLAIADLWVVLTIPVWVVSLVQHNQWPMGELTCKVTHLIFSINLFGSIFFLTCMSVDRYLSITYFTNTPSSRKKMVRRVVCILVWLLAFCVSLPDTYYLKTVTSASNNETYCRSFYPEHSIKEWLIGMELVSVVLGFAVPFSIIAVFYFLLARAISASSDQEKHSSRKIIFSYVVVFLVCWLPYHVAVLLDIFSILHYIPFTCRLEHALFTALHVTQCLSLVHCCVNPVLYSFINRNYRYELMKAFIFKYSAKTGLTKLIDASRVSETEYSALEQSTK
Chain of CXCR7 (P32121 whole entry partner, the tested form may be a part): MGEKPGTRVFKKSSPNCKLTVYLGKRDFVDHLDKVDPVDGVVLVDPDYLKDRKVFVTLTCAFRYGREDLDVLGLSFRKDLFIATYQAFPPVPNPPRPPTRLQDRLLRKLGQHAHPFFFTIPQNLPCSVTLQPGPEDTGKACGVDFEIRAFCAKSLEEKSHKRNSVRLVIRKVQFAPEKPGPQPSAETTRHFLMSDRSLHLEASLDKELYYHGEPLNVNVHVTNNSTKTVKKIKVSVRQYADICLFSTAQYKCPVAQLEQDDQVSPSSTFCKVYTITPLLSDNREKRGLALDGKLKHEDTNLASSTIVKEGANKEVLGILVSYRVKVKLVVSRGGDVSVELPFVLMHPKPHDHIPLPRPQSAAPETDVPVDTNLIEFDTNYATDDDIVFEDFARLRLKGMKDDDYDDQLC
`CCc1ccc(C(=O)Nc2cccc(CN3CCC(C(=O)NC4CCCCC4)CC3)c2)cc1` [Example 1.097] displayed an EC50 of 5 nM.
The value for `CC(C)c1ccc(C(=O)Nc2cccc(CN3CCC(C(=O)NC4CCCCC4)CC3)c2)cc1` [Example 1.098] was 12 nM; that for `Cc1ccccc1C(=O)Nc1cccc(CN2CCC(C(=O)NC3CCCCC3)CC2)c1` [Example 1.099] was 19 nM.
`Cc1cccc(C(=O)Nc2cccc(CN3CCC(C(=O)NC4CCCCC4)CC3)c2)c1` [Example 1.100] displayed an EC50 of 3 nM.
In the case of `Cc1ccc(C(=O)Nc2cccc(CN3CCC(C(=O)NC4CCCCC4)CC3)c2)cc1` [Example 1.101] it was 4 nM; in that of `O=C(Nc1cccc(CN2CCC(C(=O)NC3CCCCC3)CC2)c1)c1ccccc1F` [Example 1.102], 4 nM; in that of `O=C(Nc1cccc(CN2CCC(C(=O)NC3CCCCC3)CC2)c1)c1cccc(C(F)(F)F)c1` [Example 1.104], 5 nM.
With `O=C(Nc1cccc(CN2CCC(C(=O)NC3CCCCC3)CC2)c1)c1ccc(C(F)(F)F)cc1` [Example 1.105], the midpoint of the response, the EC50, lay at 5 nM.
In the case of `N#Cc1cccc(C(=O)Nc2cccc(CN3CCC(C(=O)NC4CCCCC4)CC3)c2)c1` [Example 1.106] it was 12 nM; in that of `N#Cc1ccc(C(=O)Nc2cccc(CN3CCC(C(=O)NC4CCCCC4)CC3)c2)cc1` [Example 1.107], 8 nM; in that of `Cc1cccc(C)c1C(=O)Nc1cccc(CN2CCC(C(=O)NC3CCCCC3)CC2)c1` [Example 1.108], 633 nM.
The value for `Cc1cccc(C(=O)Nc2cccc(CN3CCC(C(=O)NC4CCCCC4)CC3)c2)c1C` [Example 1.109] was 40 nM.
In the case of `Cc1ccc(C)c(C(=O)Nc2cccc(CN3CCC(C(=O)NC4CCCCC4)CC3)c2)c1` [Example 1.110] it was 8 nM.
The compound `Cc1ccc(C(=O)Nc2cccc(CN3CCC(C(=O)NC4CCCCC4)CC3)c2)c(C)c1` [Example 1.111] registered an EC50 of 4 nM.
In the case of `Cc1cc(C)cc(C(=O)Nc2cccc(CN3CCC(C(=O)NC4CCCCC4)CC3)c2)c1` [Example 1.112] it was 21 nM; in that of `Cc1ccc(C(=O)Nc2cccc(CN3CCC(C(=O)NC4CCCCC4)CC3)c2)cc1C` [Example 1.113], 7 nM.
The value for `Cc1c(F)cccc1C(=O)Nc1cccc(CN2CCC(C(=O)NC3CCCCC3)CC2)c1` [Example 1.114] was 13 nM; that for `Cc1cc(F)ccc1C(=O)Nc1cccc(CN2CCC(C(=O)NC3CCCCC3)CC2)c1` [Example 1.115] was 5 nM.
`Cc1ccc(F)c(C(=O)Nc2cccc(CN3CCC(C(=O)NC4CCCCC4)CC3)c2)c1` [Example 1.116]: a half-maximal effect (EC50) was put at 6 nM.
`Cc1cc(F)cc(C(=O)Nc2cccc(CN3CCC(C(=O)NC4CCCCC4)CC3)c2)c1` [Example 1.117] showed an EC50 of 4 nM.
In the case of `Cc1cc(C(=O)Nc2cccc(CN3CCC(C(=O)NC4CCCCC4)CC3)c2)ccc1F` [Example 1.118] it was 3 nM; in that of `Cc1ccc(C(=O)Nc2cccc(CN3CCC(C(=O)NC4CCCCC4)CC3)c2)c(F)c1` [Example 1.119], 6 nM.
`Cc1c(Cl)cccc1C(=O)Nc1cccc(CN2CCC(C(=O)NC3CCCCC3)CC2)c1` [Example 1.120] yielded an EC50 of 35 nM.
The value for `Cc1cc(Cl)ccc1C(=O)Nc1cccc(CN2CCC(C(=O)NC3CCCCC3)CC2)c1` [Example 1.121] was 5 nM; that for `COc1ccc(C(=O)Nc2cccc(CN3CCC(C(=O)NC4CCCCC4)CC3)c2)cc1C` [Example 1.122] was 15 nM.
Compound `COc1ccc(C(=O)Nc2cccc(CN3CCC(C(=O)NC4CCCCC4)CC3)c2)cc1F` [Example 1.123] came in with an EC50 of 4 nM.
The value for `COc1cc(F)cc(C(=O)Nc2cccc(CN3CCC(C(=O)NC4CCCCC4)CC3)c2)c1` [Example 1.124] was 5 nM.
The value for `COc1cc(OC)cc(C(=O)Nc2cccc(CN3CCC(C(=O)NC4CCCCC4)CC3)c2)c1` [Example 1.125] was 10 nM; that for `COc1ccc(C(=O)Nc2cccc(CN3CCC(C(=O)NC4CCCCC4)CC3)c2)cc1OC` [Example 1.126] was 70 nM.
The value for `O=C(Nc1cccc(CN2CCC(C(=O)NC3CCCCC3)CC2)c1)c1c(F)cccc1F` [Example 1.127] was 36 nM.
For the compound `O=C(Nc1cccc(CN2CCC(C(=O)NC3CCCCC3)CC2)c1)c1cccc(F)c1F` [Example 1.128], a half-maximal effect (EC50) was put at 5 nM.
The value for `O=C(Nc1cccc(CN2CCC(C(=O)NC3CCCCC3)CC2)c1)c1ccc(F)c(F)c1` [Example 1.129] was 2 nM.
In the case of `O=C(Nc1cccc(CN2CCC(C(=O)NC3CCCCC3)CC2)c1)c1ccc(Cl)cc1F` [Example 1.130] it was 7 nM.
In the case of `O=C(Nc1cccc(CN2CCC(C(=O)NC3CCCCC3)CC2)c1)c1cc(F)cc(Cl)c1` [Example 1.131] it was 4 nM; in that of `O=C(Nc1cccc(CN2CCC(C(=O)NC3CCCCC3)CC2)c1)c1ccc(Cl)c(F)c1` [Example 1.132], 10 nM; in that of `O=C(Nc1cccc(CN2CCC(C(=O)NC3CCCCC3)CC2)c1)c1ccc(F)cc1Cl` [Example 1.133], 7 nM.
Compound `O=C(Nc1cccc(CN2CCC(C(=O)NC3CCCCC3)CC2)c1)c1ccc(C(F)(F)F)cc1F` [Example 1.134] yielded a concentration for a half-maximal effect (EC50) of 8 nM.
In the case of `O=C(Nc1cccc(CN2CCC(C(=O)NC3CCCCC3)CC2)c1)c1cc(C(F)(F)F)ccc1F` [Example 1.135] it was 7 nM.
The value for `O=C(Nc1cccc(CN2CCC(C(=O)NC3CCCCC3)CC2)c1)c1cc(C(F)(F)F)cc(C(F)(F)F)c1` [Example 1.136] was 43 nM; that for `O=C(Nc1cccc(CN2CCC(C(=O)NC3CCCCC3)CC2)c1)c1cc(Cl)ccc1Cl` [Example 1.137] was 8 nM; that for `O=C(Nc1cccc(CN2CCC(C(=O)NC3CCCCC3)CC2)c1)c1ccc(Cl)cc1Cl` [Example 1.138] was 6 nM.
In the case of `O=C(Nc1cccc(CN2CCC(C(=O)NC3CCCCC3)CC2)c1)c1cc(Cl)cc(Cl)c1` [Example 1.139] it was 22 nM; in that of `O=C(Nc1cccc(CN2CCC(C(=O)NC3CCCCC3)CC2)c1)c1ccc(Cl)c(Cl)c1` [Example 1.140], 5 nM.
`O=C(Nc1cccc(CN2CCC(C(=O)NC3CCCCC3)CC2)c1)c1cnccn1` [Example 1.141]: the EC50 worked out at 2 nM.
In the case of `Cc1cnc(C(=O)Nc2cccc(CN3CCC(C(=O)NC4CCCCC4)CC3)c2)cn1` [Example 1.142] it was 2 nM.
In the case of `O=C(Nc1cccc(CN2CCC(C(=O)NC3CCCCC3)CC2)c1)c1ccc(Cl)c2c1CCO2` [Example 1.143] it was 5 nM; in that of `CN(C)c1cccc(C(=O)Nc2cccc(CN3CCC(C(=O)NC4CCCCC4)CC3)c2)c1` [Example 1.144], 73 nM; in that of `O=C(Nc1cccc(CN2CCC(C(=O)NC3CCCCC3)CC2)c1)c1c(F)cccc1C(F)(F)F` [Example 1.145], 425 nM.
The value for `O=C(Nc1cccc(CN2CCC(C(=O)NC3CCCCC3)CC2)c1)c1cc2cccnc2[nH]1` [Example 1.146] was 8 nM; that for `O=C(Nc1cccc(CN2CCC(C(=O)NC3CCCCC3)CC2)c1)c1cncc(C2CC2)c1` [Example 1.147] was 5 nM; that for `O=C(Nc1cccc(CN2CCC(C(=O)NC3CCCCC3)CC2)c1)c1ccc(CCF)cc1` [Example 1.148] was 5 nM.
